25 compounds from patent US9790220B2, “Substituted cyclopentanes, tetrahydrofuranes and pyrrolidines as orexin receptor antagonists” (Takeda Pharmaceutical Company Limited, priority 2014, dated 2017) can be followed below.

A value given as a limit tells only on which side of the number the result lay.

One assay concerns the target human orexin receptor 1 (Homo sapiens (Human), UniProt O43613). Description: Orexin antagonist activity, intracellular calcium FLIPR assay (orexin receptor 1). It is filed as cell-based. The following applies: RBL-2H3 cells stably expressing human orexin receptor 1; orexin-A at approx. 80% maximal response; 15 min preincubation; read-out: Human Orexin1R IC50. The method, then: (§1) Orexin antagonist activity was determined by measuring changes in intracellular calcium levels using a Ca^2+ sensitive fluorescent dye. The changes in fluorescent signal were monitored by Fluorescent Imaging Plate Reader (FLIPR™) technology available from Molecular Devices, LLC, U.S.A. Orexin mediated increases in intracellular Ca^2+ concentration were readily detected upon activation with orexin-A. Twenty-four hours prior to the assay, RBL-2H3 cells stably expressing either human orexin receptor 1 or human orexin receptor 2 were seeded in cell culture medium in black, clear-bottom 384-well plates (commercially available from Corning Inc., U.S.A.) and grown overnight at 37° C., 5% CO2. On the day of the assay, cell culture media was removed and cells were loaded with Calcium 5 Dye (commercially sold by Molecular Devices, LLC, U.S.A.) for 1 hour at 37° C., 5% CO2. Test compounds (at 10 point half log concentration response curves from 10 μM) were added to cells for 15 minutes prior to the addition of orexin-A to all wells, to achieve a final concentration that produces approximately an 80% maximal response. The IC50 values were determined from ten point concentration response curves. Curves were generated using the average of two wells for each data point. The results obtained are shown in the table below in which ‘NT’ denotes ‘Not Tested’.
Background: Calcium flux is commonly read through the fluorescence of an indicator in the cells.

Another assay deals with human orexin receptor 2 (Homo sapiens (Human), UniProt O43614). Description: Orexin antagonist activity, intracellular calcium FLIPR assay (orexin receptor 2). The conditions noted are these: RBL-2H3 cells stably expressing human orexin receptor 2; orexin-A at approx. 80% maximal response; 15 min preincubation; read-out: Human Orexin2R IC50. The assay is classed as cell-based. The protocol:
as §1

Sequence of human orexin receptor 2 (O43614 whole entry): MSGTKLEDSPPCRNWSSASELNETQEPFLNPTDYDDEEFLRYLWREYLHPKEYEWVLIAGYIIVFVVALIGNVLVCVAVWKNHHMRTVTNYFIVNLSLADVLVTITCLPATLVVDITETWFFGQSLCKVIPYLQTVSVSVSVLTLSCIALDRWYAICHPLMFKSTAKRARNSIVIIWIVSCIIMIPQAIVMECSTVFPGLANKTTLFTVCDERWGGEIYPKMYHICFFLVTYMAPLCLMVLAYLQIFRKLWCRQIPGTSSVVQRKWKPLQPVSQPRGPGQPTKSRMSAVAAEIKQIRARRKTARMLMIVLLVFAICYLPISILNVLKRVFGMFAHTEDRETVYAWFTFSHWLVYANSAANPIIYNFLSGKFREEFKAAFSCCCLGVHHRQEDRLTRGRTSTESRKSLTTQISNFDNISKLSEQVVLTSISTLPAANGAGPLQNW
Sequence of human orexin receptor 1 (O43613 whole entry): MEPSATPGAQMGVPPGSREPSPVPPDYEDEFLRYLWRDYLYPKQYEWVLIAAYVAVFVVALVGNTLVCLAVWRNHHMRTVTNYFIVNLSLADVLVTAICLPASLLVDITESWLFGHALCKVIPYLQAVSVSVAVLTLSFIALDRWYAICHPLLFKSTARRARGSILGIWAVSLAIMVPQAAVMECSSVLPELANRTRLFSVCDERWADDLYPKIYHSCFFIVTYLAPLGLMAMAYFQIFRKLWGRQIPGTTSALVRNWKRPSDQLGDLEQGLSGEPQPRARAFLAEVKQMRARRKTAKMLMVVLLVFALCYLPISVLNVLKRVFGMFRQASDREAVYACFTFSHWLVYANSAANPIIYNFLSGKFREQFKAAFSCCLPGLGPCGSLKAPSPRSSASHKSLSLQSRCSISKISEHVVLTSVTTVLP

Turning to `O=C(N[C@H]1CCC[C@@H]1Nc1nc2ccc(F)cc2s1)c1ncccc1N1CCCCC1` [Example 12, N-[(1S,2S)-2-[(6-Fluoro-1,3-benzothiazol-2-yl)amino]cyclopentyl]-3-(piperidin-1-yl)pyridine-2-carboxamide], the 50% inhibitory concentration (IC50) (as a rule, the concentration that inhibits the measured activity by half) was 42 nM at human orexin receptor 1 and more than 10000 nM on human orexin receptor 2.

As for `O=C(N[C@H]1CCC[C@@H]1Nc1nc2ccc(Cl)cc2s1)c1ncccc1OC(F)F` [Example 22, N-[(1S,2S)-2-[(6-Chloro-1,3-benzothiazol-2-yl)amino]cyclopentyl]-3-(difluoromethoxy)pyridine-2-carboxamide], the IC50 was 300 nM on human orexin receptor 1 and more than 10000 nM on human orexin receptor 2. The matching figures for `O=C(N[C@H]1CCC[C@@H]1Nc1nc2ccc(F)cc2s1)c1ncccc1N1CCC1` [Example 13, 3-(Azetidin-1-yl)-N-[(1S,2S)-2-[(6-fluoro-1,3-benzothiazol-2-yl)amino]cyclopentyl]pyridine-2-carboxamide]: 69 nM and more than 10000 nM.

As to `O=C(N[C@H]1CCC[C@@H]1Nc1nc2ccc(F)cc2s1)c1ncccc1F` [Example 11, 3-Fluoro-N-[(1S,2S)-2-[(6-fluoro-1,3-benzothiazol-2-yl)amino]cyclopentyl]pyridine-2-carboxamide], the values for the concentration for half-maximal inhibition (IC50) at human orexin receptor 1 and at human orexin receptor 2 were 330 nM and more than 10000 nM, respectively. For the compound `COc1cccnc1C(=O)N[C@H]1CCC[C@@H]1Nc1nc2ccc(F)cc2o1` [Example 7, N-[(1S,2S)-2-[(6-Fluoro-1,3-benzoxazol-2-yl)amino]cyclopentyl]-3-methoxypyridine-2-carboxamide], the IC50 on human orexin receptor 1 is 540 nM; on human orexin receptor 2, more than 10000 nM. For `O=C(N[C@H]1CCC[C@@H]1Nc1nc2ccc(F)cc2s1)c1ncccc1OC(F)(F)F` [Example 19, N-[(1S,2S)-2-[(6-Fluoro-1,3-benzothiazol-2-yl)amino]cyclopentyl]-3-(trifluoromethoxy)pyridine-2-carboxamide] the same measures were 33 nM and 3600 nM. `COc1ccc(C)nc1C(=O)N[C@H]1CCC[C@@H]1Nc1nc2ccc(F)cc2s1` [Example 9, N-[(1S,2S)-2-[(6-Fluoro-1,3-benzothiazol-2-yl)amino]cyclopentyl]-3-methoxy-6-methylpyridine-2-carboxamide]: the IC50 is 84 nM on human orexin receptor 1 and more than 10000 nM on human orexin receptor 2. The matching figures for `O=C(N[C@H]1CCC[C@@H]1Nc1nc2ccc(Cl)cc2o1)c1ncccc1OC(F)F` [Example 25, N-[(1S,2S)-2-[(6-Chloro-1,3-benzoxazol-2-yl)amino]cyclopentyl]-3-(difluoromethoxy)pyridine-2-carboxamide]: 660 nM and more than 10000 nM. For `O=C(N[C@H]1CCC[C@@H]1Nc1nc2ccc(F)cc2s1)c1ncccc1N1CCCC1` [Example 14, N-[(1S,2S)-2-[(6-Fluoro-1,3-benzothiazol-2-yl)amino]cyclopentyl]-3-(pyrrolidin-1-yl)pyridine-2-carboxamide] the same measures were 170 nM and more than 10000 nM. The matching figures for `COc1ccc(C(F)(F)F)nc1C(=O)N[C@H]1CCC[C@@H]1Nc1nc2ccc(F)cc2s1` [Example 17, N-[(1S,2S)-2-[(6-Fluoro-1,3-benzothiazol-2-yl)amino]cyclopentyl]-3-methoxy-6-(trifluoromethyl)pyridine-2-carboxamide]: 210 nM and 9600 nM.

For `O=C(N[C@H]1CCC[C@@H]1Nc1nc2ccc(F)cc2s1)c1ncccc1-n1ccnn1` [Example 24, N-[(1S,2S)-2-[(6-Fluoro-1,3-benzothiazol-2-yl)amino]cyclopentyl]-3-(1H-1,2,3-triazol-1-yl)pyridine-2-carboxamide], the 50% inhibitory concentration (IC50) at human orexin receptor 1 was 86 nM; on human orexin receptor 2, more than 10000 nM. As for `COc1cccnc1C(=O)N[C@H]1CCC[C@@H]1Nc1nc2ccc(F)cc2s1` [Example 3, N-[(1S,2S)-2-[(6-Fluoro-1,3-benzothiazol-2-yl)amino]cyclopentyl]-3-methoxypyridine-2-carboxamide], the results for the concentration for half-maximal inhibition (IC50) at human orexin receptor 1 and on human orexin receptor 2 were 170 nM and more than 10000 nM, respectively. The matching figures for `O=C(N[C@H]1CCC[C@@H]1Nc1nc2ccc(Cl)cc2s1)c1ncccc1-n1nccn1` [Example 21, N-[(1S,2S)-2-[(6-Chloro-1,3-benzothiazol-2-yl)amino]cyclopentyl]-3-(2H-1,2,3-triazol-2-yl)pyridine-2-carboxamide]: 24 nM and more than 10000 nM. As to `O=C(N[C@H]1CCC[C@@H]1Nc1nc2ccc(F)cc2s1)c1ncccc1-n1nccn1` [Example 6, N-[(1S,2S)-2-[(6-Fluoro-1,3-benzothiazol-2-yl)amino]cyclopentyl]-3-(2H-1,2,3-triazol-2-yl)pyridine-2-carboxamide], the values for the half-maximal inhibitory concentration (IC50) on human orexin receptor 1 and on human orexin receptor 2 were 8.6 nM and more than 10000 nM, respectively. The matching figures for `O=C(N[C@H]1CCC[C@@H]1Nc1nc2ccc(F)cc2s1)c1ncccc1-n1cccn1` [Example 10, N-[(1S,2S)-2-[(6-Fluoro-1,3-benzothiazol-2-yl)amino]cyclopentyl]-3-(1H-pyrazol-1-yl)pyridine-2-carboxamide]: 21 nM and more than 10000 nM.

On to `O=C(N[C@H]1CCC[C@@H]1Nc1nc2ccc(F)cc2o1)c1ncccc1OC(F)F` [Example 23, 3-(Difluoromethoxy)-N-[(1S,2S)-2-[(6-fluoro-1,3-benzoxazol-2-yl)amino]cyclopentyl]pyridine-2-carboxamide], for which the values for the IC50 at human orexin receptor 1 and at human orexin receptor 2 were 290 nM and more than 10000 nM, respectively. The matching figures for `COC1CN(c2cccnc2C(=O)N[C@H]2CCC[C@@H]2Nc2nc3ccc(F)cc3s2)C1` [Example 15, N-[(1S,2S)-2-[(6-Fluoro-1,3-benzothiazol-2-yl)amino]cyclopentyl]-3-(3-methoxyazetidin-1-yl)pyridine-2-carboxamide]: 150 nM and more than 10000 nM. Turning to `CC(C)Oc1cccnc1C(=O)N[C@H]1CCC[C@@H]1Nc1nc2ccc(F)cc2s1` [Example 8, N-[(1S,2S)-2-[(6-Fluoro-1,3-benzothiazol-2-yl)amino]cyclopentyl]-3-(propan-2-yloxy)pyridine-2-carboxamide], the IC50 at human orexin receptor 1 was found to be 34 nM; at human orexin receptor 2 it was 3300 nM. The matching figures for `O=C(N[C@H]1CCC[C@@H]1Nc1nc2ccc(F)cc2s1)c1ncccc1Br` [Example 1, 3-Bromo-N-[(1S,2S)-2-[(6-fluoro-1,3-benzothiazol-2-yl)amino]cyclopentyl]-pyridine-2-carboxamide]: 43 nM and more than 10000 nM. For `O=C(N[C@H]1CCC[C@@H]1Nc1nc2ccc(F)cc2s1)c1ncccc1OC(F)F` [Example 20, 3-(Difluoromethoxy)-N-[(1S,2S)-2-[(6-fluoro-1,3-benzothiazol-2-yl)amino]cyclopentyl]pyridine-2-carboxamide], the concentration for half-maximal inhibition (IC50) at human orexin receptor 1 was 100 nM; on human orexin receptor 2, more than 10000 nM. For `CCOc1ccc(C)nc1C(=O)NC1CCCC1Cc1ccc2ccccc2n1` (stereo not drawn) [Example 27, 3-Ethoxy-6-methyl-N-[2-(quinolin-2-ylmethyl)cyclopentyl]pyridine-2-carboxamide] the same measures were 71 nM and 6000 nM. Turning to `CCOc1ccc(C)nc1C(=O)NC1CCCC1Cc1ccc2ccccc2n1` (stereo not drawn) [Example 26, 3-Ethoxy-6-methyl-N-[2-(quinolin-2-ylmethyl)cyclopentyl]pyridine-2-carboxamide], at human orexin receptor 1, the IC50 turned out to be 910 nM. In the case of `COc1cccnc1C(=O)N(C)[C@H]1CCC[C@@H]1Nc1nc2ccc(F)cc2s1` [Example 5, N-[(1S,2S)-2-[(6-Fluoro-1,3-benzothiazol-2-yl)amino]cyclopentyl]-3-methoxy-N-methylpyridine-2-carboxamide], the IC50 on human orexin receptor 1 worked out at 14 nM; on human orexin receptor 2, 2800 nM. Take `COc1cccnc1C(=O)N[C@H]1CCC[C@@H]1Nc1cnc2ccccc2n1` [Example 16, 3-Methoxy-N-[(1S,2S)-2-[(quinoxalin-2-yl)amino]cyclopentyl]pyridine-2-carboxamide]: the concentration for half-maximal inhibition (IC50) at human orexin receptor 1 amounted to 630 nM. Regarding `CCOc1cccnc1C(=O)N[C@H]1CCC[C@@H]1Nc1nc2ccc(F)cc2s1` [Example 18, 3-Ethoxy-N-[(1S,2S)-2[(6-fluoro-1,3-benzothiazol-2-yl)amino]cyclopentyl]pyridine-2-carboxamide], the figures for the concentration for half-maximal inhibition (IC50) at human orexin receptor 1 and on human orexin receptor 2 were 41 nM and 8800 nM, respectively.
